Assay results reported in patent US4931352A, “Antifungal fermentation product” (Merck & Co., Inc., priority 1989, dated 1990).
Starred links: 1 amine or outer side, 2 acyl side, 3 side chain; linkers in the order of their positions; H or OH if unused. Positions of bridges follow the written chain, without caps; N, C: chain ends. Non-standard residues stand in square brackets, D forms with d. Residues, ends and D or L forms follow the SMILES beside them. ξ: configuration not given here. *: point of attachment. ξOrn(4,5-diOH) = O=C(C(CC(O)C(O)N[*:3])N[*:1])[*:2]; ξhTyr(βξ-OH,γξ-OH) = NC(C(=O)O)C(O)C(O)c1ccc(O)cc1; ξPro(3ξ-OH,4ξ-Me) = CC1CNC(C(=O)O)C1O; X2 = NC(=O)CC(O)C(N[*:1])C(=O)[*:2]; X1 = CCC(C)CC(C)CCCCCCCCC(=O)*; Hyp = O=C(O)[CH]1C[CH](O)CN1

What was measured:
Candida albicans [1] = test: mice infected with Candida albicans; type: in vivo
[2] = system: yeasts Saccharomyces cerevisiae, Candida albicans, Candida rugosa, Brettanomyces bruxellensis, Torulospora hansenii, Candida guilliermondii, Candida …; test: disc diffusion method, yeasts; type: cell-based; conditions: 25 microliter/disc, 28° C. or 37° C., 24 hours
Description: (§1) This may be seen in an antifungal assay employing a disc diffusion method against yeasts and filamentous fungi (molds).
(§2) In the disc diffusion method, seeded assay plates are first prepared in one of the following manners according to the type of organism.
Inocula for yeasts are prepared from overnight broth cultures then diluted into potato dextrose […] to a final concentration of either 40 percent or 70 percent transmission at 660 nm.
(§3) For three strains of Candida albicans and one strain of Saccharomyces cerevisiae, sterile saline is employed in place of potato dextrose broth. Assay plates are prepared by diluting the inoculum into appropriate molten agar medium, cooled to 45° C. to obtain a final concentration of 4 percent (volume/volume).
(§4) The seeded agar media thus prepared are dispensed into petri dishes for assays (11 milliliters per dish).
The samples to be tested for production of antifungal agent are applied to 6.2 mm. filter paper discs (25 microliter/disc) and air dried at 24° C. When the sample to be tested is a crude broth, it may be centrifuged prior to application. The discs bearing the material to be tested are then applied employing sterile conditions to the seeded assay plates and the samples rewet with 25 percent sterile aqueous dimethylsulfoxide (25 μl/disc). […] Following incubation, the inhibition zones are measured and recorded.

Candida albicans [3] = test: similar assay (MIC), expanded panel of 34 strains of Candida albicans; type: cell-based; conditions: 48 h; only against 5 of 34 strains of Candida albicans
Description: (§5) The activity may be seen in an agar dilution assay employing a yeast nitrogen base dextrose agar medium. In carrying out the assay, Compound I was solubilized in 10 percent dimethyl sulfoxide (DMSO) supplemented with one drop of Tween 20. Twofold dilutions were made with sterile distilled water/10 percent DMSO to obtain final drug concentrations in the agar dilution assay plates ranging from 128 to 0.06 μg/ml.
(§6) The yeast cultures, maintained in yeast maltose (YM) broth, were transferred to fresh YM medium and incubated overnight at 35° C. with shaking (250 rpm). After incubation, each culture was diluted in sterile saline to yield a final concentration of 3×10^5 to 3×10^6 colony forming units (CFU)/ml.
(§7) Each prepared plate was inoculated using a Denley Multipoint Inoculator (Denley, Sussex, England) which delivers approximately 0.001 milliliter to the ar surface resulting in inoculation of from 3×10^2 to 3×10^3 CFUs. The plates were incubated at 28° C. for 48 hours. The minimum inhibitory concentrations (MICs) were recorded as the lowest concentrations of drug showing no growth or less than three CFU/spot.
In a similar assay, Compound I was tested against an expanded panel of 34 different strains of Candida albicans and 13 different strains of Candida parapsilosis.

Candida albicans [4] = test: agar dilution assay (MIC), Candida albicans; type: cell-based; conditions: C. albicans strain MY1029; possible media interference with drug activity
Description: as §5, §6, §7

in vitro = type: cell-based; conditions: mouse; fresh blood of CD-1 female mice; 25° C., two hours; highest drug concentration that did not lyse the red blood cells; tested 0.39 to 400 μg/ml in 5 percent dextrose; read-out: minimum lytic concentration (MLC)
Description: The property of Compound I of requiring concentration of drug far above the therapeutic dose levels to effect red blood cell lysis was discovered in a standard titration/hemolysis assay using fresh blood drawn from CD-1 female mice. Concentration of drug in the range of from 0.39 to 400 μg/ml in 5 percent dextrose and a drug free control were employed.
In carrying out the determination, the assay tubes prepared by mixing together 2 milliliters of appropriate drug dilution and 0.5 milliliter of red blood cell suspension were gently shaken to mix the contents and then the tubes were incubated at 25° C. for two hours. At the end of this time, the tubes were examined visually for complete or partial red blood cell hemolysis and compared to a drug free control. […] The MLC for Compound I was 400 μg/ml.

[5] = system: filamentous fungi Cochliobolus miyabeanus, Penicillium sp. (three strains), Aspergillus niger, Trichoderma sp., Trichoderma liqnorum, Alternaria solani …; test: disc diffusion method, filamentous fungi; type: cell-based; conditions: 25 microliter/disc, 28° C. or 37° C., 24 hours
Description: as §1, §2
Inocula for filamentous fungi are prepared by scraping the surface of stock plates maintained on potato dextrose agar with a moistened sterile dacron swab. The spores and mycelia are then suspended in 10 milliliters of sterile potato dextrose broth and adjusted to 70 percent transmission at 660 nm.
as §3, §4
The samples to be tested for production of antifungal agent are applied to 6.2 mm. filter paper discs (25 microliter/disc) and air dried at 24° C. When the sample to be tested is a crude broth, it may be centrifuged prior to application. […] Following incubation, the inhibition zones are measured and recorded.

[6] = solubility in organic solvents; conditions: methanol, ethanol, dimethylformamide, dimethyl sulfoxide, ethyl acetate and the like

CCC(C)CC(C)CCCCCCCCC(=O)NC1CC(O)C(O)NC(=O)C2C(O)C(C)CN2C(=O)C(C(O)CC(N)=O)NC(=O)C(C(O)C(O)c2ccc(O)cc2)NC(=O)C2CC(O)CN2C(=O)C(C(C)O)NC1=O [Compound I, 1-[(4R, 5R)-4,5-dihydroxy-N^2-(10,12-dimethyl-1-oxotetradecyl)-L-ornithine]-5-(threo-3-hydroxy-L-glutamine)echinocandin B] (X1-[ξOrn(4,5-diOH)]T[Hyp][ξhTyr(βξ-OH,γξ-OH)][X2][ξPro(3ξ-OH,4ξ-Me)]; lactam 1-C; configuration not given here)
eradication of Candida albicans from kidneys (Candida albicans [1]; kidneys of experimentally infected mice): eradicate Candida albicans from kidneys | survival of mice infected with Candida albicans (Candida albicans [1]; mice infected with Candida albicans): significantly prolong the survival | antifungal properties (inhibition zones) [2]: good antifungal properties | MIC (Candida albicans [3]): > 1 µg/mL | growth observed (footnote to MIC) (Candida albicans [4]): Substantially reduced growth was observed | MNTC at 2 h (in vitro): 400 µg/mL | antifungal properties (inhibition zones) [5]: good antifungal properties | solubility in organic solvents [6]: soluble
